Values joined by “and” are separate entries in the source; they are usually repeats but may differ in a detail not shown here. Identical values can stand only once. Blank lines part the entries; values can stand above or below the molecule they belong to.
Key:
sEH [1] = assay type: in vivo, mouse (sEH-KO, C57BL/6); conditions: baseline
sEH [2] = biological target: T1, sEH (Mus musculus, UniProt P34914); assay type: in vivo, mouse (CD-1); conditions: CD-1 mouse brain, high dose of blocker nor-fluoro-FNDP
T1 sequence (P34914 1-554): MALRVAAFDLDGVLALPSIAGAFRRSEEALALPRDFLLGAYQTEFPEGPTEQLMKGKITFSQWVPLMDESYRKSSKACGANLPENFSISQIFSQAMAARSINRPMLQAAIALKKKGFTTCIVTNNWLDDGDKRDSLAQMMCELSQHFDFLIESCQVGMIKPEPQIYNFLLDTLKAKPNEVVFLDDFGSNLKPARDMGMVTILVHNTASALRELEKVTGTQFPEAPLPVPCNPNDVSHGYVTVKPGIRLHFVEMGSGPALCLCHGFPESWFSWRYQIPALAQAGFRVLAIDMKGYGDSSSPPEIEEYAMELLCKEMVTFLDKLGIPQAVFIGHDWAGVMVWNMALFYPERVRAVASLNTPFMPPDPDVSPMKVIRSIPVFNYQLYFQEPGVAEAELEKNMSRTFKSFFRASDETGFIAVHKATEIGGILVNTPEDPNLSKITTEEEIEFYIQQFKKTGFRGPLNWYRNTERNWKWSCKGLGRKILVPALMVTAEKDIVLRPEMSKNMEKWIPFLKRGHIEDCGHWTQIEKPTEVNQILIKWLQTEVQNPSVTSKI

[3] = Radiometabolite analysis of baboon arterial blood/plasma by RP-HPLC; assay type: in vivo, Papio anubis (baboon); conditions: 90 min post-injection
[4] = Baseline regional brain biodistribution of ^18F-FNDP in CD-1 mice; assay type: in vivo, mouse (CD-1); conditions: IV, mean ± SD, n=3
sEH [5] = assay: Dynamic PET imaging of baboon brain, baseline and blocking with nor-fluoro-FNDP; assay type: in vivo, Papio anubis (baboon)
human sEH = conditions: read-out: human IC50; cited from earlier work

- Regional uptake in striatum, hippocampus and cortex (sEH [1]; C57BL6 control mice, 60 min post-injection): ~ 1 %ID/g
- Specific (blocked) binding in striatum, hippocampus and cortex (sEH [2]): 90%
- Remaining parent compound in plasma radioactivity [3]: 20% and ~ 20%
- Regional brain uptake, cortex ([4]; 5 min): 4.69 ± 0.21 %ID/g tissue
- Regional brain uptake, hippocampus ([4]; 5 min): 3.29 ± 0.54 %ID/g tissue
- Regional brain uptake, hypothalamus ([4]; 5 min): 2.59 ± 0.18 %ID/g tissue
- Regional brain uptake, rest of brain ([4]; 5 min): 3.53 ± 0.11 %ID/g tissue
- Regional brain uptake, striatum ([4]; 5 min): 5.24 ± 0.45 %ID/g tissue
- Regional brain uptake, cerebellum ([4]; 15 min): 1.31 ± 1.01 %ID/g tissue
- Regional brain uptake, cortex ([4]; 15 min): 2.92 ± 0.36 %ID/g tissue
- Regional brain uptake, hippocampus ([4]; 15 min): 2.51 ± 0.34 %ID/g tissue
- Regional brain uptake, hypothalamus ([4]; 15 min): 1.66 ± 0.28 %ID/g tissue
- Regional brain uptake, rest of brain ([4]; 15 min): 2.37 ± 0.34 %ID/g tissue
- Regional brain uptake, striatum ([4]; 15 min): 3.29 ± 0.36 %ID/g tissue
- Regional brain uptake, cerebellum ([4]; 30 min): 1.09 ± 0.16 %ID/g tissue
- Regional brain uptake, cortex ([4]; 30 min): 2.07 ± 0.05 %ID/g tissue
- Regional brain uptake, hippocampus ([4]; 30 min): 1.76 ± 0.15 %ID/g tissue
- Regional brain uptake, hypothalamus ([4]; 30 min): 1.04 ± 0.08 %ID/g tissue
- Regional brain uptake, rest of brain ([4]; 30 min): 1.64 ± 0.06 %ID/g tissue
- Regional brain uptake, striatum ([4]; 30 min): 2.32 ± 0.15 %ID/g tissue
- Regional brain uptake, cerebellum ([4]; 60 min): 0.52 ± 0.07 %ID/g tissue
- Regional brain uptake, cortex ([4]; 60 min): 0.87 ± 0.14 %ID/g tissue
- Regional brain uptake, hippocampus ([4]; 60 min): 0.81 ± 0.15 %ID/g tissue
- Regional brain uptake, hypothalamus ([4]; 60 min): 0.51 ± 0.07 %ID/g tissue
- Regional brain uptake, rest of brain ([4]; 60 min): 0.71 ± 0.10 %ID/g tissue
- Regional brain uptake, striatum ([4]; 60 min): 1.07 ± 0.14 %ID/g tissue
- Regional brain uptake, cerebellum ([4]; 90 min): 0.29 ± 0.04 %ID/g tissue
- Regional brain uptake, cortex ([4]; 90 min): 0.45 ± 0.05 %ID/g tissue
- Regional brain uptake, hippocampus ([4]; 90 min): 0.43 ± 0.06 %ID/g tissue
- Regional brain uptake, hypothalamus ([4]; 90 min): 0.31 ± 0.05 %ID/g tissue
- Regional brain uptake, rest of brain ([4]; 90 min): 0.38 ± 0.04 %ID/g tissue
- Regional brain uptake, striatum ([4]; 90 min): 0.54 ± 0.07 %ID/g tissue
- VT in cerebellum (average) (sEH [5]; baboon, baseline, Logan method): 7.9 ± 1.0
- VT in frontal/temporal gyrus and hippocampus (sEH [5]; baboon, baseline, Logan method): > 10.1
- VT in globus pallidus, corpus callosum, white matter, hypothalamus and thalamus (sEH [5]; baboon, baseline, Logan method): > 8.1
- VT in insula, putamen, caudate and amygdala (sEH [5]; baboon, baseline, Logan method): > 11.5
Structure (SMILES): O=C(NCCC(c1ccccc1)c1ccccc1)c1ccc([18F])nc1 [^18F-FNDP, N-(3,3-diphenylpropyl)-6-^18F-fluoronicotinamide]
- Reduction of uptake in sEH-KO mice as compared with controls (sEH [1]; 60 min after radiotracer injection): ~ 90%
- Blockade in all brain regions (sEH [5]; baboon PET): 95%
- Specificity of sEH radiolabeling (sEH [5]; both animal species (mouse and baboon)): up to 95%

From publication PMC5095511 (Journal of nuclear medicine : official publication, Society …, 2016)
